Data as given in patent US5214045A, “Amino acid containing acrylamide derivatives for ulcer prevention or treatment” (Richter Gedeon Vegyeszeti Gyar RT, priority 1989, dated 1993).

Key:
[1] = tested on: gastric injuries induced by acidic alcohol; test: Assay of gastric injuries induced by acidic alcohol; assay type: in vivo; conditions: female rats; for ED50: Rattus norvegicus, po, pretreatment 30 min, length of haemorrhagic lesions
Protocol: 1) Assay of gastric injuries induced by acidic alcohol
Female rats weighing about 120 to 150 g fasted for 24 hours were used in this test. Test compounds suspended with Tween 80 were given orally to the animals through an intragastric tube. After a certain period (pretreatmenttime) acidic alcohol was given through the intragastric tube at a dose or 0.5 ml per 100 g of body weight. The animals were sacrificed after 1 hour, their stomachs were removed and incised along the great curve. The length of the reddish-brown strips (haemorrhagic lesions) was measured and the mean total length per stomach was calculated. The biological activity of the test compounds was given and compared to that of the control group. the results are shown in Tables 1 and 2 below.

gastric acid secretion = test: Assay of the inhibition of gastric acid secretion by using pylorus ligature; assay type: in vivo; conditions: female Wistar rats, 4 hours
Protocol: 2) Assay of the inhibition of gastric acid secretion by using pylorus ligature
[Shay et al., Gastroenterology, 5, 43-61 (1945)]
Before ligating the pylorus, the test compounds suspended with Tween were given orally at a volume of 0.5 ml per […] of body weight to female Wistar rats fasted previously for 20 hours. The animals were sacrificed 4 hours after the operation, and the amount of the acid in the stomach was measured by titration with 0.01N sodium hydroxide solution in the presence of phenolphthalein indicator. The pH value of the content of the stomach was measured by using a pH-meter (Radelkis, Type OP-211/1).

| SMILES | ED50 [1] [mg/kg] | % Inhibition in the amount of the acid at a dose of 25 mg/kg p.o. (pretreatment: 30 min) (gastric acid secretion) [%] | % Inhibition at a dose of 10 mg/kg p.o. (pretreatment: 30 min) [1] [%] |
| --- | --- | --- | --- |
| CCOC(=O)C[C@@H](NC(=O)/C=C/[S+]([O-])c1ccccc1)C(=O)OCC (stereo partly drawn) [A, Diethyl N-[3-phenylsulfinyl-2(E)-propenoyl]-(R)-aspartate] | 2.1 | 30 | – |
| CCOC(=O)C[C@@H](NC(=O)/C=C/S(=O)(=O)c1ccccc1)C(=O)OCC [B, Diethyl N-[3-phenylsulfonyl-2(E)-propenoyl]-(R)-aspartate] | 3.5 | – | – |
| O=C(/C=C/S(=O)(=O)c1ccccc1)N1CCN(c2ccccc2)CC1 [C, 1-[3-Phenylsulfonyl-2(E)-propenoyl]-4-phenyl-piperazine] | – | 20 | – |
| COC(=O)[C@H](CCSC)NC(=O)/C=C/S(=O)(=O)c1ccccc1 [D, Methyl 2(S)-[3-phenylsulfonyl-2(E)-propenoylamino]-4-methylthiobutyrate] | 3.5 | – | – |
| CCOC(=O)C[C@@H](NC(=O)/C=C/Sc1ccccc1)C(=O)OCC [E, Diethyl N-[3-phenylthio-2(E)-propenoyl]-(R)-aspartate] | – | 20 | 20 |
| CCOC(=O)C[C@H](NC(=O)/C=C/Sc1ccccc1)C(=O)OCC [F, Diethyl N-[3-phenylthio-2(E)-propenoyl]-(S)-aspartate] | – | 20 | 20 |
| NC(=O)[C@@H]1CCCN1C(=O)/C=C/S(=O)(=O)c1ccccc1 [G, 1-[3-Phenylsulfonyl-2(E)-propenoyl]-2(S)-carbamoylpyrrolidine] | 4.5 | 30 | – |
| CCOC(=O)CNC(=O)/C=C/S(=O)(=O)c1ccccc1 [H, Ethyl N-[3-phenylsulfonyl-2(E)-propenoyl]glycinate] | 1.6 | 30 | – |
| CCOC(=O)[C@H](C)NC(=O)/C=C/S(=O)(=O)c1ccccc1 [I, Ethyl N-[3-phenylsulfonyl-2(E)-propenoyl]-(S)alanate] | 2.2 | 20 | – |
| COC(=O)[C@@H]1CSCN1C(=O)/C=C\Sc1ccccc1 [J, Methyl N-[3-phenylthio-2(Z)-propenoyl]-(R)-thiazolidine-4-carboxylate] | – | – | 20 |
| O=C(O)C[C@@H](NC(=O)/C=C/S(=O)(=O)c1ccccc1)C(=O)O [K, Magnesium N-[3-phenylsulfonyl-2(E)-propenoyl]-(R)aspartate.4H2 O] | – | 30 | – |
